These results are taken from US20020055174A1, “Complex for transferring an anionic substance of interest into a cell” (priority 2000, published 2002).

Entries after “also recorded” stand apart in the source; their conditions may differ. Bridge positions count the residues as written; N and C are the ends. Ends that are not written are not given here.

A short description of data set [1]: Liposome leakage assay, POPC/cholesterol 3:2 liposomes. The following applies: POPC/chol 3:2 liposomes.
Experimental: Increasing amounts of the indicated peptides were incubated with POPC/Cholesterol (3:2 mol/mol) liposomes for 30 min at RT. Emitted fluorescence was plotted against peptide concentration. […] B) Liposome leakage activity with complexes of ppTG1 and the plasmid pTG11236 at pH7.
1-Palmitoyl-2-Oleoyl-phosphatidylcholine (POPC) liposomes were prepared by the repeated freeze-thaw method followed by extrusion (Olson et al., 1979, Biochim. Biophys. Acta 557, 19-23). Ten μ-moles of POPC in chloroform were placed in a glass tube and solvent was evaporated under reduced pressure using a Labconco Rapidvap vortex evaporator (Uniequip, Germany). The resulting lipid film was hydrated with 0.5 ml of an aqueous solution of calcein (lOOmM calcein, 3.75 eq. NaOH, 50mM NaCl). The lipid suspension was sonicated until the solution became clear using a sonic water bath (Bransonic 221, Branson Ultrasonics Corp., USA). Five cycles of freeze-thaw were performed before liposomes were extruded by 4 passages through 200 nm pore diameter polycarbonate membranes (Nuclepore, Costar, Mass., USA). Free calcein was removed from calcein encapsulated into liposomes by gel exclusion chromatography using a Sephadex G-50 column (3 cm×14 cm) and a 200 mM NaCl, 25 mM HEPES, pH 7.3 solution as the elution buffer. The final lipid concentration was determined by a phosphorus assay (Bartlett, 1959, J. Biol. Chem. 234, 466-469). Liposomes' diameter was determined by dynamic laser light scattering using a Coulter N4 Plus submicron particle sizer (Coultronics France S. A, France). Measurements were performed within a 3 nm-10000 nm size window with a fixed 90° scattered light angle.
The liposome leakage assay was carried out as described in Planck et al. (1994, J. Biol. Chem. 269, 12918-12924). The liposome stock solution was diluted to a lipid concentration of 45 μM in 1.8× assay buffer (360 mM NaCl, 36 mM sodium citrate, pH 5 and pH 7). A 1:5 serial dilution of the tested peptide was carried out in a 96-well microtiter plate by transferring 20 μl of the peptide solution from one well to the next well and diluting with 80 μl H2O. 100 μl of the liposome solution was added in each well (final lipid concentration: 25 μM) and, after 30 min at room temperature, was assayed for fluorescence at 535 nm (excitation: 485 nm) on a microtiter plate fluorescence spectrometer (WALLAC, 1420 multilabel counter Victor). These conditions are appropriate to analyze fluorescein and as close as possible to the appropriate excitation/ emission profile of calcein (495 nm /515 nm). The value for 100% leakage was obtained by addition of 1 μl of a 10% Triton X-100 solution. Leakage activity was plotted against peptide concentration.
Liposome leakage activities were analyzed on liposomes consisting of POPC and cholesterol at a molar ratio of 3:2 (mol/mol).
Complexes of ppTG1 with plasmid DNA pTG11236 were tested for liposome leakage activity on POPC/chol 3:2 liposomes.
The series of ppTG1 derivatives as they are listed in Materials and Methods was tested for liposome leakage activity on POPC/chol 3:2 liposomes at pH7.
The next data set has as its system HeLa cells. Description: Transfection in vitro, luciferase plasmid pTG11236. It is filed as cell-based. To be noted: for transfection / gene transfer efficiency in vitro, in words: HeLa cells, 50 ng pTG11236, increasing charge ratios, day 1. How it is done: Cells were plated on 24 well plates at a density of 4×10^4 (293-EBNA ) or 7×10^4 (HeLa, Renca) cells/well in DMEM supplemented with 10% FCS. The next day, the medium was replaced by 200 μl serum-free DMEM and plasmid (pTG11056 or pTG11236)/peptide complexes or plasmid/peptide/lipid complexes were prepared in 30 μl 0.9% NaCl or 5% glucose. After 20 min at room temperature these complexes were added to the cells which were then incubated for 2-3 h at 37° C. and 5% CO2 before 1 ml serum-containing DMEM was added. Approximately 20-hours later, cells were lysed by addition of 100 μl 1× Promega lysis buffer, 20 μl of the lysates were analysed for luciferase activity. Proteins were quantified with the bicinchonic acid (BCA) colorimetric method (Smith, Anal. Biochem. 150 (1985), 76-85).
In another experiment, 7×10^4 HeLa cells, seeded on 24-well plates the day before transfection, were transfected with 0.5 μg or 0.05 μg pTG11236, complexed with Lipofectin or ppTG1. The plasmid/peptide complexes were prepared in 30 μl of 5% glucose or 0.9% NaCl and added to the cells (200 μl serum-free medium) after 20 min at room temperature. Serum-containing medium was added after 3 h, the cells were harvested the next day.
A comparison of the effect on transfection efficiency of ppTG1 and JTS-1-K13 was carried out in HeLa cells. Complexes of 0.5 μg or 0.05 μg pTG11236 were formed with increasing amounts the respective peptide.
A comparison of ppTG1 and KALA was carried out in HeLa and CHO cells. 5×10^4 cells were seeded on 24 well plates. The next day, cells were transfected with 500 ng and 50 ng of pTG11236, complexed with ppTG1 or KALA in 30 μl 0.9% NaCl. The charge ratio +/− varied from 1, 2, 3, 4, 7 to 10. Cells were harvested 20 h after transfection and lysis was obtained in 100 μl Promega lysis buffer. Luciferase activity and total protein concentrations in 20 μl were determined.
HeLa cells were seeded at a density of 6×10^4 cells on 24 well plates. The next day, cells were incubated with 200 μl serum-free medium, 30 μl of plasmid (50 ng)/peptide/lipid mixtures were added and incubated for 3 h at 37° C. in 5% CO2. 1 ml of DMEM+10% FCS was then added. The next day, the medium was removed and cells were washed with 500 μl of PBS and subsequently treated with 100 μl of Promega lysis buffer. Plates were stored at −80° C. until luciferase activity was measured of 20 μl of the cell lysate. The protein assay was performed using the Pierce BCA kit.
JTS1 was dissolved to 1 mg/ml in 1 mM NaOH and mixed with DNA diluted in 5% glucose. ppTG1 was then added to this solution. The pcTG90/DOPE ppTG1 mixtures were prepared as described in Example 6. Transfection assays were performed on HeLa cells with 50 ng of plasmid as described in Example 6.
The series of ppTG1 derivatives listed in Material and Methods were tested for their gene transfer efficiencies in Hela cells. 6×10^4 cells were transfected with 50 ng pTG11236 complexed with increasing amounts of peptide. Luciferase activity was analyzed day 1 after transfection. The results are shown in FIG. 10B (ppTG20, ppTG21), FIG. 10C(ppTG25, ppTG26, ppTG27), FIG. 10D (ppTG28 to ppTG33), FIG. 10E (PEG-ppTG1 and PEG-ppTG20), FIG. 10F (ppTG22 to ppTG24) and FIG. 10G (ppTG20-D).

For the next data set, the system named is plasmid pTG11236. Description: Gel retardation assay (DNA binding). How it is done: 3μg of the plasmid pTG11236 were incubated with increasing amounts of the respective peptide in a final volume of 30 μl with 0.9% NaCl. After 20 min of incubation at room temperature, 6 μl 5× loading buffer (glycerol and bromphenol blue in TAE buffer) were added and 10 μl of these solutions were analyzed on a 1% agarose gel in the presence of ethidium bromide.
The ability of ppTG1 peptide to complex DNA was analyzed by gel retardation assays. […] After 20 minutes incubation at room temperature, loading buffer was added and 10 μl of the resulting solution were analyzed on a 1% agarose gel.
ppTG1 derivatives as they are indicated in Materials and Methods, were tested for their capacity to bind plasmid DNA by gel retardation assays.

For data set [2] the following is noted: pH 5 vs pH 7; cited from earlier work.
The next data set has as its system B6SJL mice. The following applies: for gene transfer efficiency in the lung, in words: i.v., 50 or 60 μg pTG11236, day 1. The procedure: Indicated amounts of the luciferase expression plasmid pTG11236 were mixed with ppTG1 and /or pcTG90/DOPE. The resulting formulations were injected intramuscularly(30 μl), intravenously(250 μl) into mice or intratumorally (Renca tumors, 100 μgl). Muscles, tumors or organs were recovered at the indicated points of time, macerated and tested for luciferase activity with the luciferase assay kit from Promega.
60 μg or 30 μg of the plasmid pTG11236 were mixed with peptide ppTG1 and/or with a pcTG90/DOPE 1:2 mixture in 250 μl 5% glucose. After 20 min incubation at room temperature, the complexes were intravenously injected into B6SJL mice. Mice were sacrificed at day 1. The lungs were recovered, total protein was extracted and luciferase activity was analysed.
The potential of gene transfer with mono-component peptide vectors was investigated in vivo. Fifty or sixty μg of the luciferase expression plasmid pTG11236 were complexed with pcTG90/DOPE (1:2) [+/−] 10 in 250 μl 5% glucose (Meyer et al. 2000). The resulting lipoplex vector served as reference for gene transfer studies with pTG11236 complexed with ppTG1, ppTG20 and ppTG32 in 250 μl 5% glucose. Five mice per group were intravenously injected, the animals were sacrificed at day 1 after injection. Lungs were tested for luciferase activity.

As to CGLFKALLKLLKSLWKLLLKA [ppTG23], the “liposome leakage activity, in words” value in data set [1] (pH7) is “slightly reduced membrane destruction”.

With “CGLFKALLKLLKSLWKLLLKAC (cysteine pairing not given here) [ppTG24]”, the “liposome leakage activity, in words” value in data set [1] (pH7) was “slightly reduced membrane destruction”.

Regarding GIFKAIIKIIKSIWKIIIKA [ppTG30], the “transfection / gene transfer efficiency in vitro, in words” value (from here on “transfection / gene transfer efficiency”) in the data set with HeLa cells is reported as “diminished gene transfer efficiency in vitro; also recorded: reduced the efficiency of gene transfer”.

Turning to GIFRAIIRIIRSIWRIIIRA [ppTG31], in the data set with HeLa cells, the “transfection / gene transfer efficiency” value is “diminished gene transfer efficiency in vitro; also recorded: reduced the efficiency of gene transfer”. Besides, the “liposome leakage activity, in words” value in data set [1] (pH7) was “slightly reduced liposome leakage activity”.

Take “GLFEALLELLESLWELLLEA [reference compound]”: the “retardation of plasmid DNA” value in the data set with plasmid pTG11236 (3 μg pTG11236 and 0.1 μg to 10 μg peptide) is listed as “not observed”. Besides, the “lysis of calcein containing phosphatidylcholine liposomes” value in data set [2] is on record as “capable of lysing calcein containing phosphatidylcholine liposomes at pH 5, more efficiently than at a pH 7”. Besides, the “liposome leakage activity, in words” value was “high lysis activity” in data set [1] (pH5) and “reduced” in data set [1] (pH7).

GLFHALLHLLHSLWHLLLHA: the “DNA binding, in words” value in the data set with plasmid pTG11236 (pH5) was “binds plasmid DNA at pH5; also recorded: can bind DNA at pH5”. The “transfection / gene transfer efficiency” value in the data set with HeLa cells is listed as “strongly reduced”. The “liposome leakage activity, in words” value in data set [1] (pH7) is on record as “comparable to ppTG1”.

As for GLFKKLLKLLKKLWKLLLKA [ppTG28], the “transfection / gene transfer efficiency” value with HeLa cells is “comparable to ppTG1 and ppTG20; also recorded: did not change transfection efficiencies”. In data set [1] (pH7), the “liposome leakage activity, in words” value is recorded as “slightly reduced liposome leakage activity”.

Regarding GLFRALLRLLRSLWRLLLRA [ppTG20], the “toxicity in vivo, in words” value with B6SJL mice (i.v. injection of peptide/pTG11236 complexes) is reported as “less toxic than ppTG1”.

GLFRRLLRLLRRLWRLLLRA [ppTG29]: in the data set with HeLa cells, the “transfection / gene transfer efficiency” value is “comparable to ppTG1 and ppTG20; also recorded: did not change transfection efficiencies”. The “liposome leakage activity, in words” value in data set [1] (pH7) was “slightly reduced liposome leakage activity”.

For the substance GVFKAVVKVVKSVWKVVVKA [ppTG32], the “transfection / gene transfer efficiency” value in the data set on HeLa cells is “diminished gene transfer efficiency in vitro”. In data set [1] (pH7), the “liposome leakage activity, in words” value is “diminished liposome leakage activity; also recorded: significantly reduced liposome leakage activity”. Besides, in the data set with B6SJL mice, the “gene transfer efficiency in the lung, in words” value is “drastically reduced gene transfer efficiency; also recorded: did not lead to detectable reporter gene expression”.

As to GVFRAVVRVVRSVWRVVVRA [ppTG33], the “transfection / gene transfer efficiency” value in the data set with HeLa cells is on record as “diminished gene transfer efficiency in vitro”. The “liposome leakage activity, in words” value in data set [1] (pH7) is “diminished liposome leakage activity; also recorded: significantly reduced liposome leakage activity”.

“Gly-Leu-Phe-Arg-Ala-Leu-Leu-Arg-Leu-Leu-Arg-Ser-Leu-Trp-Arg-Leu-Leu-Leu-Arg-Ala (GLFRALLRLLRSLWRLLLRA; also: D-amino acids, places not given here) [ppTG20-D]”: the “transfection / gene transfer efficiency” value with HeLa cells is recorded as “retained; also recorded: as efficient as ppTG1”. Besides, the “liposome leakage activity, in words” value in data set [1] (pH7) is given as “retained”.

Consider “Gly-Leu-Phe-Glu-Ala-Leu-Leu-Glu-Leu-Leu-Glu-Ser-Leu-Trp-Glu-Leu-Leu-Leu-Glu-Ala-Cys-Cys-Tyr-Lys-Ala-Lys-Lys-Lys-Lys-Lys-Lys-Lys-Lys--Trp-Lys-Lys-Lys-Lys-Gln-Ser (GLFEALLELLESLWELLLEACCYKAKKKKKKKKWKKKKQS; disulfide 21-22) [JTS-1-K13, reference compound]”, for which the transfection result with HeLa cells (0.05 μg plasmid DNA, FIG. 4) is recorded as “remains low”. Also, the luciferase expression entry in the data set with HeLa cells (0.5 μg pTG11236 complexed with 1.5 μg peptide) is recorded as “high level of luciferase expression”. Also, the “liposome leakage activity, in words” value in data set [1] (pH5) was “low level release”; in data set [1] (pH7), “impeded in calcein release”. Besides, the “gene transfer efficiency in the lung, in words” value in the data set with B6SJL mice was “low”.

Regarding “WEAKLAKALAKALAKHLAKALAKALKACEA [reference compound]”, in the data set with HeLa cells (HeLa, 500 ng pTG11236), the “gene transfer at optimal charge ratio lower than for ppTG1” value stood at 4 fold. The “liposome leakage activity, in words” value in data set [1] (pH5) and in data set [1] (pH7) was “could not liberate calcein” in each case. Moreover, in the data set on B6SJL mice, the “gene transfer efficiency in the lung, in words” value is recorded as “undetectable; also recorded: inefficient”.
